Consider 26 molecules from ChEMBL document CHEMBL1201862, “PubChem BioAssay data set” (2004).

Molecules are shown by their SMILES.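 Growth conditions: 96-well plates. Treatment: test compound, 48 hours, 5 concentrations. Analysis: linear interpolation between bracketing concentrations; unreached endpoints set to highest concentration. GI50 is the concentration that inhibits growth by half.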 Calls of active or inactive are those of the source. Rule as the data show it: active = GI50 up to about 1.1 µM and inactive = higher.

Among the test systems are DMS-273; HOP-18; DMS-114; DLD-1; SNB-78; XF498; KM-20L2; M19-MEL; RXF 631.
What all share (assay): NCI-60 cell line screen, 48 h

With `COc1cc2ccnc3c2c(c1OC)CC1CC(O)C(OC)CC31` (centres undefined), the GI50 in the test with DMS-273 was 34 µM (inactive); in the test on HOP-18, 21.8 µM (inactive); in the test on DMS-114 it was 44.5 µM (inactive); in the test with DLD-1 it was 95.3 µM (inactive); with SNB-78, > 100 µM (inactive); in the test with XF498, 44.7 µM (inactive). For the same molecule, the figures for the GI50 in the test with KM-20L2 and in the test on M19-MEL were 43.2 µM (inactive) and 96.2 µM (inactive), respectively.
As to `CN(C)NC(=O)/C(=C/c1ccc(Cl)cc1)NC(=O)c1ccccc1`, the GI50 with DMS-273 is 29.4 µM (inactive); with HOP-18 it was > 100 µM (inactive); with DLD-1, 44.9 µM (inactive); in the test on XF498, > 100 µM (inactive); in the test on RXF 631, 55.3 µM (inactive); in the test with KM-20L2, > 100 µM (inactive). The GI50 in the test with M19-MEL is > 100 µM (inactive).
In the case of `CN1CC[C@]2(C)c3cc(O)ccc3CC3CCCC1C32C` (some centres undefined), the GI50 with HOP-18 was 26.6 µM (inactive); with DMS-114, > 100 µM (inactive); with DLD-1, > 100 µM (inactive); in the test with SNB-78 it was > 100 µM (inactive); with XF498, > 100 µM (inactive); in the test with RXF 631, > 100 µM (inactive). Besides, the GI50 with KM-20L2 and with M19-MEL was > 100 µM (inactive) in each case.
On to `COC(=O)c1cc2c3c(ccc2[nH]1)N(C(=O)c1cc2c4c(ccc2[nH]1)N(C(=O)c1cc2c5c(ccc2[nH]1)N(C(N)=O)CC5)CC4)CC3`, for which the GI50 in the test with DMS-273 is 4.06 µM (inactive); with HOP-18 it was > 100 µM (inactive); in the test with DMS-114 it was 3.7 µM (inactive); with DLD-1, > 21.1 µM (inactive); in the test with SNB-78 it was > 100 µM (inactive); in the test with KM-20L2, > 63.8 µM (inactive).
On to `Cc1ccc(C(=O)C(C)N)cc1` (centres undefined), for which the GI50 in the test on DMS-273, in the test with HOP-18, with DMS-114, in the test with DLD-1, with SNB-78 and in the test with XF498 was > 100 µM (inactive) in each case. Besides, in the test with KM-20L2, the GI50 is > 100 µM (inactive).
Consider `COc1cc2c(cc1OC)C(=O)N1CCCC1C(=O)S2` (centres undefined), for which the GI50 was > 100 µM (inactive) in the test with DMS-273; 25.4 µM (inactive) in the test with HOP-18; > 100 µM (inactive) in the test with DMS-114; > 100 µM (inactive) in the test on DLD-1; > 100 µM (inactive) in the test on SNB-78; 92.7 µM (inactive) with XF498. Moreover, the GI50 with KM-20L2 is > 100 µM (inactive).
Regarding `CC1(C)O/C(=C\c2ccccc2)C(=O)/C(=C/c2ccccc2)O1`, the GI50 is 42.6 µM (inactive) with DMS-273; > 100 µM (inactive) in the test on HOP-18; 17.3 µM (inactive) in the test with DMS-114; 42.3 µM (inactive) with DLD-1; 38.5 µM (inactive) with SNB-78; 18.5 µM (inactive) with XF498. Besides, the GI50 in the test on RXF 631 is 33.8 µM (inactive); with M19-MEL it was 28.6 µM (inactive).
Regarding `Nc1nc(SCc2ccccc2[N+](=O)[O-])c2[nH]cnc2n1`, the GI50 in the test with DMS-273, in the test on DLD-1, with SNB-78, in the test on KM-20L2 and in the test on M19-MEL was > 100 µM (inactive) each time.
For the molecule `O=C1C(Br)=C(Br)C(=O)c2ccc(=O)ccc21`, the GI50 was 48 µM (inactive) with DMS-273; 24.2 µM (inactive) with HOP-18; 20.4 µM (inactive) in the test on DMS-114; 22.3 µM (inactive) with DLD-1; 29.3 µM (inactive) with SNB-78; 24 µM (inactive) with XF498. In addition, the GI50 in the test with RXF 631 was 18.7 µM (inactive); with KM-20L2, > 100 µM (inactive); in the test with M19-MEL, 17.2 µM (inactive).
`CCOP(=O)(OCC)/C(C#N)=C\c1cccc2ccccc12`: the GI50 is 48.2 µM (inactive) in the test with SNB-78, > 100 µM (inactive) with KM-20L2 and > 100 µM (inactive) in the test with M19-MEL.
As for `O=C(O)C12C3CCC(C3)C1(C(=O)O)C1CCC2C1` (centres undefined), the GI50 in the test with DMS-273 was > 100 µM (inactive); in the test on HOP-18 it was > 100 µM (inactive); with DMS-114 it was 33.9 µM (inactive); in the test on DLD-1, 24.7 µM (inactive); in the test with SNB-78 it was > 100 µM (inactive); with XF498 it was > 100 µM (inactive). In addition, the values for the GI50 in the test on RXF 631, in the test on KM-20L2 and with M19-MEL were > 100 µM (inactive), > 100 µM (inactive) and 92.5 µM (inactive), respectively.
For `Cc1nc(N)nc(N)c1CCCCc1ccc(N)cc1`, the GI50 is 6.43 µM (inactive) in the test with DLD-1; 9.46 µM (inactive) in the test on SNB-78; 11.4 µM (inactive) with XF498; 3.74 µM (inactive) with KM-20L2; 8.55 µM (inactive) with M19-MEL.
With `CCOC(=O)C(=O)Nc1ccc([N+](=O)[O-])cc1C#N`, the GI50 in the test on HOP-18, in the test on DMS-114, in the test on DLD-1, in the test on XF498, in the test on RXF 631 and in the test with M19-MEL was > 100 µM (inactive) each time.
On to `COc1cc(C2(C)SCCCS2)cc(OC)c1OC`, for which the GI50 in the test with DMS-273, in the test on HOP-18, in the test with DMS-114, in the test on DLD-1, in the test with RXF 631 and with KM-20L2 was > 100 µM (inactive) each time. Further, the GI50 in the test with M19-MEL was > 100 µM (inactive).
`CCCOc1ccc(/C=C/c2cc(OC)c(OC)c(OC)c2)cc1`: the GI50 in the test on DMS-273 is 0.147 µM (active); with HOP-18, > 100 µM (inactive); in the test on DMS-114, 0.347 µM (active); with DLD-1, 0.386 µM (active); in the test on SNB-78 it was 1.29 µM (inactive); in the test with XF498, 0.56 µM (active). The results for the GI50 in the test with RXF 631, in the test with KM-20L2 and with M19-MEL were 2.03 µM (inactive), 0.2 µM (active) and 0.682 µM (active), respectively.
For the molecule `CC(=O)OCC1OC(n2c(=O)[nH]c(=O)c3nn[nH]c32)C(OC(C)=O)C(OC(C)=O)C1OC(C)=O` (centres undefined), the GI50 in the test on DMS-273 was > 100 µM (inactive); with HOP-18, 76.7 µM (inactive); with DMS-114, > 100 µM (inactive); in the test on DLD-1 it was > 100 µM (inactive); with XF498 it was > 100 µM (inactive); in the test with KM-20L2, > 100 µM (inactive). The GI50 in the test with M19-MEL was > 100 µM (inactive).
With `COC(=O)C1CC(C(=O)OC)c2nc3cc(C)ccc3nc21` (centres undefined), the GI50 with DMS-273 was > 100 µM (inactive); in the test on HOP-18 it was 51.4 µM (inactive); with DMS-114, > 100 µM (inactive); in the test with DLD-1, > 100 µM (inactive); in the test with SNB-78, > 100 µM (inactive); in the test on XF498, > 100 µM (inactive). The GI50 in the test with RXF 631, with KM-20L2 and with M19-MEL was > 100 µM (inactive) throughout.
`CCO[C@]12C[C@H](OC)[C@@]3(O)CC(C1[C@H]3OCc1ccccc1)C13C4C2[C@H](OC)C1[C@](COC)(CN4CC)[C@H](O)C[C@@H]3OC` (some centres undefined): the GI50 in the test with DMS-273, with DMS-114, in the test with DLD-1, with SNB-78, with XF498 and in the test on KM-20L2 was > 100 µM (inactive) throughout. In addition, in the test on M19-MEL, the GI50 was > 100 µM (inactive).
On to `O=C(/C=C/c1ccc(OCCSCCCCCCCCCCSCCOc2ccc(/C=C/C(=O)c3ccc(Cl)cc3)cc2)cc1)c1ccc(Cl)cc1`, for which the GI50 is > 100 µM (inactive) in the test with DMS-273; > 100 µM (inactive) in the test on HOP-18; > 100 µM (inactive) in the test with DMS-114; > 100 µM (inactive) in the test on DLD-1; 37.2 µM (inactive) with SNB-78; > 66.1 µM (inactive) in the test on RXF 631. In addition, the GI50 with KM-20L2 and with M19-MEL was > 100 µM (inactive) in each case.
Regarding `CNC(=O)NCNC(=O)NC`, the GI50 in the test with DMS-273, in the test with HOP-18, in the test on DMS-114, with DLD-1, with SNB-78 and with RXF 631 was > 100 µM (inactive) each time. In addition, the GI50 in the test on KM-20L2 and in the test with M19-MEL was > 100 µM (inactive) each time.
As to `Cc1ccc2[nH]c3c4c5ccccc5nc-4c[nH]c3c2c1`, the GI50 with HOP-18 is 14.9 µM (inactive); in the test on DMS-114 it was 16.1 µM (inactive); in the test with DLD-1, 15.5 µM (inactive); with SNB-78, 17 µM (inactive); in the test with XF498, 21.4 µM (inactive); with KM-20L2, 15.1 µM (inactive).
Regarding `Cc1ccc(/C=C(\NC(=O)c2ccccc2)c2nc3ccccc3[nH]2)cc1`, the GI50 with HOP-18 was > 100 µM (inactive); in the test with DMS-114, 27.6 µM (inactive); in the test on DLD-1 it was 56.8 µM (inactive); with KM-20L2 it was 47.1 µM (inactive); with M19-MEL, 46.5 µM (inactive).
As for `COC(=O)C(C(=O)C(=O)Nc1ccc(C)cc1C)c1nc2ccc([N+](=O)[O-])cc2nc1O` (centres undefined), the GI50 with DMS-273 is 97.7 µM (inactive); in the test with HOP-18, > 100 µM (inactive); with DMS-114 it was 33.4 µM (inactive); in the test with DLD-1 it was > 100 µM (inactive); in the test with SNB-78 it was > 100 µM (inactive); in the test with XF498, > 100 µM (inactive). For the same molecule, the GI50 with RXF 631, in the test with KM-20L2 and in the test with M19-MEL was > 100 µM (inactive) each time.
For the molecule `Oc1ccc(-c2n[nH]c(S)n2)cc1`, the GI50 in the test on DMS-273, in the test on HOP-18, in the test on DMS-114, in the test with DLD-1, in the test on SNB-78 and in the test on XF498 was > 100 µM (inactive) in each case. Besides, the GI50 in the test on KM-20L2 and with M19-MEL was > 100 µM (inactive) in each case.
For the molecule `CNC(C)Cc1ccccc1O` (centres undefined), the GI50 with DMS-273, in the test on HOP-18, in the test on DMS-114, in the test with DLD-1, in the test on SNB-78 and in the test with KM-20L2 was > 100 µM (inactive) in each case.
Consider `ClC(/N=N/c1ccccc1)=N/Nc1ccccc1`, for which the GI50 with DMS-273 was 26.6 µM (inactive); in the test with HOP-18 it was 20.8 µM (inactive); in the test with SNB-78 it was > 100 µM (inactive); in the test on XF498 it was 40.4 µM (inactive); in the test on RXF 631 it was > 100 µM (inactive); in the test on KM-20L2, 51.1 µM (inactive). For the same molecule, the GI50 in the test on M19-MEL was > 100 µM (inactive).
